Laboratory results: patent US11713335B2, “Aminocoumarin compounds and methods of their use” (President and Fellows of Harvard College, priority 2018, dated 2023)
In brackets after ≈: the same amount, converted by molar mass. Where two headings read alike, the source gives them in different places.

What was measured:
E. cloacae 13047 = test: Minimal inhibitory concentration, E. cloacae 13047; assay type: cell-based; settings: 16 hour minimal inhibitory concentration at 37° C., read-out: MIC (μM) E. cloacae 13047
In short: (§1)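 Saturated overnight cultures in LB (TSA for S. aureus), grown at 37 °C with shaking, were diluted 1:100 twice and exposed to twofold serial dilutions of compound from DMSO stock. After 16 h static incubation at 37 °C, OD600 was read; MIC is the lowest concentration inhibiting growth, reported in µM.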

E. coli MC4100 = test: Minimal inhibitory concentration, E. coli MC4100; assay type: cell-based; settings: 16 hour minimal inhibitory concentration at 37° C., read-out: MIC (μM) E. coli MC4100 ara+
In short: as §1

A. baumannii 19606 = test: Minimal inhibitory concentration, A. baumannii 19606; assay type: cell-based; settings: 16 hour minimal inhibitory concentration at 37° C., read-out: MIC (μM) A. baumannii 19606
In short: as §1

WT E. coli = test: Minimal inhibitory concentration in wild-type E. coli; assay type: cell-based, Escherichia coli; settings: wild-type E. coli, 37° C., 16 hours, read-out: MIC (μM) in WT E. coli
Protocol: General Procedure for Determination of Minimal Inhibitory Concentrations
Overnight cultures (5 mL) of bacterial strains were grown in LB media or TSA media (for S. aureus) at 37° C. and with shaking at 220 rpm until saturation. The overnight culture was diluted serially 1:100 (50 μL in 5 mL sterile media) and then 1:100 (250 μL in 25 mL sterile media). The 25 mL of diluted culture was then dispensed to a sterile 96 well plate (Corning #3370). 198 μL of culture were dispensed into row A and 100 μL of this culture were dispensed into rows B-H. Aminocoumarin compound (DMSO stock) were added to the first row and then the row was mixed by pipetting. 100 μL of culture from row A were transferred to row B and the serial dilution continued until the final 100 μL from row H were discarded. The plate was incubated without shaking in a 37° C. for 16 hours and then read by visible light spectrophotometer (Molecular Devices) at 600 nm. The minimal inhibitory concentration (MIC) was determined as the lowest concentration of compound concentration that inhibited the growth of bacteria.

S. aureus RN4220 = test: Minimal inhibitory concentration, S. aureus RN4220; assay type: cell-based; settings: 16 hour minimal inhibitory concentration at 37° C., read-out: MIC (μM) S. aureus RN4220
In short: as §1

S. aureus MW2 = test: Minimal inhibitory concentration, S. aureus MW2; assay type: cell-based; settings: 16 hour minimal inhibitory concentration at 37° C., read-out: MIC (μM) S. aureus MW2 (MRSA)
In short: as §1

E. coli 25922 = test: Minimal inhibitory concentration, E. coli 25922; assay type: cell-based; settings: 16 hour minimal inhibitory concentration at 37° C., read-out: MIC (μM) E. coli 25922
In short: as §1

K. pneumoniae 700721 = test: Minimal inhibitory concentration, K. pneumoniae 700721; assay type: cell-based; settings: 16 hour minimal inhibitory concentration at 37° C., read-out: MIC (μM) K. pneumoniae 700721
In short: as §1

[1] = Acinetobacter baumannii, 19606, 16 h
[2] = Staphylococcus aureus, RN4220, 16 h
[3] = Staphylococcus aureus, MRSA, 16 h

Structure (SMILES)	MIC (E. cloacae 13047)	MIC (E. coli MC4100)	MIC (A. baumannii 19606)	MIC (WT E. coli)	MIC (S. aureus RN4220)	MIC (S. aureus MW2)	MIC (E. coli 25922)	MIC (K. pneumoniae 700721)	MIC (E. cloacae 13047; Enterobacter cloacae, 13047)	MIC (E. coli MC4100; Escherichia coli, MC4100, 16 h)	MIC (A. baumannii 19606; [1])	MIC (WT E. coli; Escherichia coli)	MIC (S. aureus RN4220; [2])	MIC (S. aureus MW2; [3])	MIC (E. coli 25922; Escherichia coli, 25922, 16 h)	MIC (K. pneumoniae 700721; Klebsiella pneumoniae, 700721)
CO[C@@H]1[C@@H](OC(N)=O)[C@@H](O)[C@H](Oc2ccc3c(O)c(NC(=O)c4ccccc4)c(=O)oc3c2C)OC1(C)C [Compound 8]	>100 µM	>200 µM	>50 µM	>300 µM	>100 µM	>100 µM	>200 µM	>100 µM								
COc1ccc(C(=O)Nc2c(O)c3ccc(O[C@@H]4OC(C)(C)[C@H](OC)[C@@H](OC(N)=O)[C@H]4O)c(C)c3oc2=O)cc1OC [Compound 9]									> 100 µM	> 200 µM	> 50 µM	> 300 µM	85 µM (≈ 50 µg/mL)	43 µM (≈ 25.3 µg/mL)	> 200 µM	> 100 µM
COc1cccc(OC)c1C(=O)Nc1c(O)c2ccc(O[C@@H]3OC(C)(C)[C@H](OC)[C@@H](OC(N)=O)[C@H]3O)c(C)c2oc1=O [Compound 10]									> 100 µM	> 200 µM	> 50 µM	> 300 µM	> 100 µM	85 µM (≈ 50 µg/mL)	> 200 µM	> 100 µM
COc1cc(C(=O)Nc2c(O)c3ccc(O[C@@H]4OC(C)(C)[C@H](OC)[C@@H](OC(N)=O)[C@H]4O)c(C)c3oc2=O)cc(OC)c1OC [Compound 11]									> 100 µM	> 200 µM	> 50 µM	> 300 µM	> 100 µM	> 100 µM	> 200 µM	> 100 µM
CO[C@@H]1[C@@H](OC(N)=O)[C@@H](O)[C@H](Oc2ccc3c(O)c(NC(=O)C4CC4)c(=O)oc3c2C)OC1(C)C [Compound 13]									> 100 µM	> 200 µM	> 50 µM	> 300 µM	> 100 µM	> 100 µM	> 200 µM	> 100 µM
CO[C@@H]1[C@@H](OC(N)=O)[C@@H](O)[C@H](Oc2ccc3c(O)c(NC(=O)C45CC6CC(CC(C6)C4)C5)c(=O)oc3c2C)OC1(C)C [Compound 14]									> 100 µM	> 200 µM	> 50 µM	> 300 µM	43 µM (≈ 25.2 µg/mL)	21 µM (≈ 12.3 µg/mL)	> 200 µM	> 100 µM
CO[C@@H]1[C@@H](OC(N)=O)[C@@H](O)[C@H](Oc2ccc3c(O)c(NC(=O)c4ccc[nH]4)c(=O)oc3c2C)OC1(C)C [Compound 15]									> 100 µM	> 200 µM	> 50 µM	> 300 µM	> 100 µM	> 100 µM	> 200 µM	> 100 µM
CO[C@@H]1[C@@H](OC(N)=O)[C@@H](O)[C@H](Oc2ccc3c(O)c(NC(=O)c4cc5ccccc5[nH]4)c(=O)oc3c2C)OC1(C)C [Compound 16]	>100 µM	>200 µM	>50 µM	>300 µM	>100 µM	>100 µM	>200 µM	>100 µM								
CO[C@@H]1[C@@H](OC(N)=O)[C@@H](O)[C@H](Oc2ccc3c(O)c(NC(=O)c4c[nH]c5ccccc45)c(=O)oc3c2C)OC1(C)C [Compound 17]									> 100 µM	> 200 µM	> 50 µM	> 300 µM	44 µM (≈ 25 µg/mL)	22 µM (≈ 12.5 µg/mL)	> 200 µM	> 100 µM
CO[C@@H]1[C@@H](OC(N)=O)[C@@H](O)[C@H](Oc2ccc3c(O)c(NC(=O)c4cccc(-c5ccc(C)cc5)c4)c(=O)oc3c2C)OC1(C)C [Compound 20]	>100 µM	26 µM (≈ 16.1 µg/mL)	40 µM (≈ 24.7 µg/mL)	26 µM (≈ 16.1 µg/mL)	2.5 µM (≈ 1.55 µg/mL)	3 µM (≈ 1.86 µg/mL)	40 µM (≈ 24.7 µg/mL)	>100 µM								
CO[C@@H]1[C@@H](OC(N)=O)[C@@H](O)[C@H](Oc2ccc3c(O)c(NC(=O)c4cccc(-c5c(C)cccc5C)c4)c(=O)oc3c2C)OC1(C)C [Compound 21]									> 100 µM	133 µM (≈ 84.1 µg/mL)	> 50 µM	133 µM (≈ 84.1 µg/mL)	10 µM (≈ 6.33 µg/mL)	10 µM (≈ 6.33 µg/mL)	> 200 µM	> 100 µM
CO[C@@H]1[C@@H](OC(N)=O)[C@@H](O)[C@H](Oc2ccc3c(O)c(NC(=O)c4cccc(-c5cccs5)c4)c(=O)oc3c2C)OC1(C)C [Compound 22]									> 100 µM	89 µM (≈ 54.3 µg/mL)	> 50 µM	89 µM (≈ 54.3 µg/mL)	10 µM (≈ 6.11 µg/mL)	10 µM (≈ 6.11 µg/mL)	164 µM (≈ 100 µg/mL)	> 100 µM
CO[C@@H]1[C@@H](OC(N)=O)[C@@H](O)[C@H](Oc2ccc3c(O)c(NC(=O)c4cccc(N5CCOCC5)c4)c(=O)oc3c2C)OC1(C)C [Compound 23]									> 100 µM	> 200 µM	> 50 µM	> 300 µM	82 µM (≈ 50.3 µg/mL)	82 µM (≈ 50.3 µg/mL)	> 200 µM	> 100 µM
CO[C@@H]1[C@@H](OC(N)=O)[C@@H](O)[C@H](Oc2ccc3c(O)c(NC(=O)c4cccc(-c5ccc([N+](=O)[O-])cc5)c4)c(=O)oc3c2C)OC1(C)C [Compound 24]	>100 µM	>200 µM	>50 µM	>300 µM	5 µM (≈ 3.25 µg/mL)	5 µM (≈ 3.25 µg/mL)	154 µM (≈ 100 µg/mL)	>100 µM								
CO[C@@H]1[C@@H](OC(N)=O)[C@@H](O)[C@H](Oc2ccc3c(O)c(NC(=O)c4cccc(-c5ccc(N(C)C)cc5)c4)c(=O)oc3c2C)OC1(C)C [Compound 25]									> 100 µM	> 200 µM	19 µM (≈ 12.3 µg/mL)	> 300 µM	0.96 µM (≈ 0.622 µg/mL)	0.96 µM (≈ 0.622 µg/mL)	> 200 µM	> 100 µM
